US9388215B2, “Compositions and methods of using islet neogenesis peptides and analogs thereof” (SHENZHEN HIGHTIDE BIOPHARMACEUTICAL, LTD., priority 2013, dated 2016)

Experiments:
normal C57BL/6J mice [1] = assay: Induction of extra islet insulin positive β cell clusters (EIC) in normal C57BL/6J mice; format: in vivo, mouse
Protocol: After a 1-week acclimation, female C57BL/6J mice were randomly divided into 6 groups (n=5 per group). The control group received 10 mL/kg sterile normal saline via subcutaneous injection for 10 consecutive days. The other five groups received INGAP-PP (Peptide 1) or INGAP-PP analogs Peptide 12, Peptide 16, Peptide 29 or Peptide 31 at a dose of 50 mg/kg or 5 mg/kg per day, respectively, for the same period. On day 11, the pancreas was removed from each animal, cleared of fat and lymph nodes, weighed, and fixed in 10% neutral buffered formalin (NBF) for no longer than 24 hours before processing for morphometric analysis.
Immunohistochemistry analysis was used to assess the islet neogenic activities of peptides by measuring the number and area of extra islet insulin positive β cell clusters (EIC) of pancreatic tissues harvested from each individual group post 10 day treatment. EIC is indicative of islet neogenesis, as previously described by Lipsett and Finegood (Diabetes 51:1834-1841 (2002)).

[2] = Peptide stability in culture medium (F-12K, 37° C., HPLC); format: physicochemical; settings: F-12K medium, 0.25 mg/mL, 0-72 hours, FIG. 2, FIG. 11
Protocol: To determine the stability of peptides in culture medium, a certain amount of selected peptides was accurately weighed and dissolved in distilled water to 5 mg/mL as a stock solution. The stock solution was diluted to 0.25 mg/mL with F-12K medium (Gibco-BRL, Gaithersburg, Md., USA) as working solution. A volume of 100 μL of each working solution was transferred into individual sample vials. The sample vials were incubated in a 37° C. incubator for 0, 24, 48 and 72 hours before being analyzed and quantitated by HPLC. […]

[3] = test system: STZ induced diabetic mice; assay: Efficacy in streptozotocin (STZ) induced diabetic mice model; format: in vivo, mouse; settings: 5 mg/kg or 25 mg/kg for 20 days
Protocol: After acclimatization in the animal facility for one week, 6-8 weeks old C57BL/6J mice were administered low dose STZ at 40 mg/kg in citrate buffer for 5 consecutive days to establish a T1D animal model. Mice with blood glucose greater than 16.7 mmol/L at 5 days post last STZ injection were included in the study. These mice were then treated with INGAP-PP (Peptide 1) or Peptide 7 at the doses of 5 mg/kg (2.5 mg/kg, bid (twice a day)) or 25 mg/kg (12.5 mg/kg, bid) for 20 days before sacrifices. Two additional groups of diabetic mice were administered either saline or a peptide (Peptide 3) composed of a scrambled sequence of amino acids from Peptide 1 as control groups. Blood glucose and insulin levels were measured, and 20 days post the last dosing of test agents, an oral glucose tolerance test (OGTT) was performed in 6 hour fasted animals to determine the effect of Peptide 1 and Peptide 7. Blood samples obtained from the tail cut for glucose determination were detected with an ACCU-CHEK™ glucometer (Roche, ACCU-CHEK® Active), and insulin levels were determined with Rat/Mouse Insulin Elisa kit (Millipore, Billerica, Mass. USA). For the OGTT, after the measurement of the basal glucose concentration (T=−30 min), mice received an oral glucose challenge at 2 g/kg and glucose values were determined by glucometer at 0, 15, 30, 60, 90 and 120 min.

normal C57BL/6J mice [4] = assay: Induction of small β-cell clusters in normal C57BL/6J mice (islet size distribution); format: in vivo, mouse
Protocol: After a 1-week acclimation, C57BL/6J female mice were randomly divided into 4 groups. The two control groups received either 10 mL/kg sterile normal saline (n=4) or scrambled peptide (Peptide 3, 25 mg/kg) (n=5) via subcutaneous injection for 10 days. The other two groups received INGAP-PP (Peptide 1) or INGAP-PP analog Peptide 7 at a dose of 25 mg/kg per day respectively (n=7 per group) for the same period. Body weight and 6 hour fasting blood glucose were measured before treatment and after the last dosing of treatment. Plasma and pancreatic insulin were also measured at the end of the study. On day 11, the pancreas was removed from each animal, cleared of fat and lymph nodes, weighed, and fixed in 10% neutral buffered formalin (NBF) for no longer than 24 hours before processing for morphometric analysis.
Immunohistochemistry analysis was used to determine pancreatic islet size distribution.

For “Ac-IGLHDPSHGTLPNGS-NH2 [Peptide 31, Ac-IGLHDPSHGTLPNGS-NH2]”, the “islet neogenesis efficacy relative to INGAP-PP” value (normal C57BL/6J mice [1]; analog 5 mg/kg vs INGAP-PP 50 mg/kg, 10 days) was “comparable or improved efficacy was achieved at a dose one tenth of INGAP-PP”, the “number of extra islet cluster (EIC)” value (normal C57BL/6J mice [1]; female C57BL/6J mice, 10 days sc, INGAP-PP 50 mg/kg, analogs 5 mg/kg per day, FIG. 9A) was “statistically greater than that of INGAP-PP (Peptide 1) (50 mg/kg) treated group” and the “total area of EIC” value (normal C57BL/6J mice [1]; female C57BL/6J mice, 10 days sc, INGAP-PP 50 mg/kg, analogs 5 mg/kg per day, FIG. 9B) was “statistically greater than that of INGAP-PP (Peptide 1) (50 mg/kg) treated group”.
In the case of “Ac-IGLHDPSHGTLPNGS-OH [Peptide 16, Ac-IGLHDPSHGTLPNGS-OH]”, the “stability in culture medium” value [2] is reported as “significantly more stable than INGAP-PP peptide in culture medium”.
For “H-IGLHDPSHGTLPNGS-OH [Peptide 1, H-IGLHDPSHGTLPNGS-OH, reference compound]”, the “effect on body weight or pancreas weight” value [3] was “did not affect body weight or pancreas weight”, the “number of islets, islet size (Log [μm^2]) ranging from 2.1 to 0.7” value (normal C57BL/6J mice [4]; normal female C57BL/6J mice, 25 mg/kg per day, 10 days, versus naive/control group, FIG. 7) was “only observed in islet size of 2.1” and the “effect on body weight, blood glucose, plasma insulin, pancreas insulin, pancreas weight” value (normal C57BL/6J mice [4]; normal mice, 25 mg/kg per day sc for 10 days, compared to saline group) was “did not affect body weight, blood glucose, plasma insulin, pancreas insulin, or pancreas weight”.
